# Laboratory results: patent publication US8071586B2, “Heterocyclyl compounds” (Hoffmann-La Roche Inc., priority 2008, dated 2011)
# Molecular target: T1, human chemokine receptor 2 isoform B (CCR2) (Homo sapiens, UniProt P41597)
# T1 sequence (P41597 1-360 isoform P41597-2): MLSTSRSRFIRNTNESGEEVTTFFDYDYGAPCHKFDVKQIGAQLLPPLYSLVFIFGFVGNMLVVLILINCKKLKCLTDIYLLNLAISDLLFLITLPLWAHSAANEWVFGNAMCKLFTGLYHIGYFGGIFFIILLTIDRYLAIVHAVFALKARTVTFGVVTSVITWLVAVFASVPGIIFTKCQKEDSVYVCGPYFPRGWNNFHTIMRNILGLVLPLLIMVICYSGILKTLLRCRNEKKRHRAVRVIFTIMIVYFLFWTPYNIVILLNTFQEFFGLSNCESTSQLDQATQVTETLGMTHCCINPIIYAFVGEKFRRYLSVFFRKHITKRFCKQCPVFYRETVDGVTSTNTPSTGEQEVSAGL
# Test: Calcium mobilization assay (FLIPR, MCP-1 stimulated CHOK1-CCR2B-A5 cells)
# Assay type: cell-based
# Conditions: Ca mobilisation assay, CCR2 antagonist activity, inhibition of MCP-1 induced calcium increase
# Protocol: Calcium Mobilization Assay
# CHOK1-CCR2B-A5 cells (from Euroscreen) stably overexpressing the human chemokine receptor 2 isoform B were cultured in Nutrient Hams F12 medium supplemented with 5% FBS, 100 U/ml penicillin, 100 μg/ml streptomycin, 400 μg/ml G418 and 5 μg/ml puromycin.
# For the assay cells were grown overnight in 384-well black clear flat bottom polystyrene plates (Costar) at 37° C. at 5% CO2. After washing with DMEM, 20 mM Hepes, 2.5 mM probenecid, 0.1% BSA (DMEM assay buffer) cells were loaded with 4 μM Fluo-4 in the same DMEM assay buffer for 2 hours at 30° C. Excess dye was removed and cells were washed with DMEM assay buffer. 384-well compound plates were prepared with DMEM assay buffer/0.5% DMSO with or without various concentrations of test compounds. Usually compounds were tested for agonist and antagonist activity.
# Test compounds were added to the assay plate and agonist activity was monitored as fluorescence for 80 seconds with a FLIPR (488 nm excitation; 510-570 nm emission; Molecular Devices). After 20-30 min. of incubation at 30° C., […] MCP-1 (R&D; Roche) was added and fluorescence was monitored again for 80 seconds. Increases in intracellular calcium are reported as maximum fluorescence after agonist exposure minus basal fluorescence before exposure. Antagonist activity is indicated as inhibitor concentration required for 50% inhibition of specific calcium increases.
row,IC50,Structure (SMILES)
1,0.0051 µM,"CC1CN(C(CO)CCN2CCC3(CC3)[C@H](O)C2)C(=O)CCN1C(=O)Nc1cccc(Cl)c1 (stereo in doubt) [Example 63, (R)-4-[(S)-3-((S)-4-Hydroxy-6-aza-spiro[2.5]oct-6-yl)-1-hydroxymethyl-propyl]-2-methyl-5-oxo-[1,4]diazepane-1-carboxylic acid (3-chloro-phenyl)-amide]"
2,0.021 µM,"COCC(CCN1CCC2(CC2)[C@H](O)C1)N1CC(C)N(C(=O)Nc2cccc(Cl)c2)CCC1=O (stereo in doubt) [Example 65, (R)-4-[(S)-3-((S)-4-Hydroxy-6-aza-spiro[2.5]oct-6-yl)-1-methoxymethyl-propyl]-2-methyl-5-oxo-[1,4]diazepane-1-carboxylic acid (3-chloro-phenyl)-amide]"
3,0.033 µM,"COCC(CCN1CCC2(CC2)[C@H](O)C1)N1CC(C)N(C(=O)Nc2cccc(C(F)(F)F)c2)CCC1=O (stereo in doubt) [Example 66, (R)-4-[(S)-3-((S)-4-Hydroxy-6-aza-spiro[2.5]oct-6-yl)-1-methoxymethyl-propyl]-2-methyl-5-oxo-[1,4]diazepane-1-carboxylic acid (3-trifluoromethyl-phenyl)-amide]"
4,0.003 µM,"COCC(CCN1CCC2(CC2)[C@H](O)C1)N1CC(C)N(C(=O)Nc2ccc(Cl)c(Cl)c2)CCC1=O (stereo in doubt) [Example 68, (R)-4-[(S)-3-((S)-4-Hydroxy-6-aza-spiro[2.5]oct-6-yl)-1-methoxymethyl-propyl]-2-methyl-5-oxo-[1,4]diazepane-1-carboxylic acid (3,4-dichloro-phenyl)-amide]"
5,0.47 µM,"COC(=O)C(CCN1CCC2(CC2)[C@H](O)C1)N1CCN(C(=O)Nc2cccc(Cl)c2)CCC1=O (stereo partly drawn) [Example 1, (R,S)-2-[4-(3-Chloro-phenylcarbamoyl)-7-oxo-[1,4]diazepan-1-yl]-4-((S)-4-hydroxy-6-aza-spiro[2.5]oct-6-yl)-butyric acid methyl ester]"
6,0.04 µM,"O=C(Nc1cccc(Cl)c1)N1CCC(=O)N(C(CO)CCN2CCC3(CC3)[C@H](O)C2)CC1 (stereo partly drawn) [Example 2, (R,S)-4-[3-((S)-4-Hydroxy-6-aza-spiro[2.5]oct-6-yl)-1-hydroxymethyl-propyl]-5-oxo-[1,4]diazepane-1-carboxylic acid (3-chloro-phenyl)-amide]"
7,0.27 µM,"COC(=O)[C@H](CCN1CCC2(CC2)[C@H](O)C1)N1CCN(C(=O)Nc2cccc(Cl)c2)CCC1=O [Example 3, (S)-2-[4-(3-Chloro-phenylcarbamoyl)-7-oxo-[1,4]diazepan-1-yl]-4-((S)-4-hydroxy-6-aza-spiro[2.5]oct-6-yl)-butyric acid methyl ester]"
8,0.01 µM,"O=C(Nc1cccc(Cl)c1)N1CCC(=O)N([C@H](CO)CCN2CCC3(CC3)[C@H](O)C2)CC1 [Example 4, 4-[(S)-3-((S)-4-Hydroxy-6-aza-spiro[2.5]oct-6-yl)-1-hydroxymethyl-propyl]-5-oxo-[1,4]diazepane-1-carboxylic acid (3-chloro-phenyl)-amide]"
9,0.05 µM,"COCC(CCN1CCC2(CC2)[C@H](O)C1)N1CCN(C(=O)Nc2cccc(Cl)c2)CCC1=O (stereo partly drawn) [Example 5, (R,S)-4-[3-((S)-4-Hydroxy-6-aza-spiro[2.5]oct-6-yl)-1-methoxymethyl-propyl]-5-oxo-[1,4]diazepane-1-carboxylic acid (3-chloro-phenyl)-amide]"
10,0.84 µM,"COCC(CCN1CCC2(CC2)[C@H](O)C1)N1CCN(C(=O)NCc2ccc(Cl)c(Cl)c2)CCC1=O (stereo partly drawn) [Example 6, (R,S)-4-[3-((S)-4-Hydroxy-6-aza-spiro[2.5]oct-6-yl)-1-methoxymethyl-propyl]-5-oxo-[1,4]diazepane-1-carboxylic acid 3,4-dichloro-benzylamide]"
11,0.78 µM,"CN(C)C(=O)C(CCN1CCC2(CC2)[C@H](O)C1)N1CCN(C(=O)Nc2cccc(Cl)c2)CCC1=O (stereo partly drawn) [Example 10, (R,S)-4-[1-Dimethylcarbamoyl-3-((S)-4-hydroxy-6-aza-spiro[2.5]oct-6-yl)-propyl]-5-oxo-[1,4]diazepane-1-carboxylic acid (3-chloro-phenyl)-amide]"
12,0.98 µM,"O=C1CCN(C(=O)Nc2ccc(Cl)c(Cl)c2)CCN1CCCN1CCCCC1 [Example 11, 5-Oxo-4-(3-piperidin-1-yl-propyl)-[1,4]diazepane-1-carboxylic acid (3,4-dichloro-phenyl)-amide]"
13,0.6 µM,"O=C1CCN(C(=S)Nc2ccc(Cl)c(Cl)c2)CCN1CCCN1CCCCC1 [Example 18, 5-Oxo-4-(3-piperidin-1-yl-propyl)-[1,4]diazepane-1-carbothioic acid (3,4-dichloro-phenyl)-amide]"
14,0.37 µM,"O=C(Nc1ccc(Cl)c(Cl)c1)N1CCN(CCCN2CCCCC2)S(=O)(=O)CC1 [Example 21, 1,1-Dioxo-2-(3-piperidin-1-yl-propyl)-[1,2,5]thiadiazepane-5-carboxylic acid (3,4-dichloro-phenyl)-amide]"
15,0.77 µM,"O=S1(=O)CCN(C(=S)Nc2ccc(Cl)c(Cl)c2)CCN1CCCN1CCCCC1 [Example 22, 1,1-Dioxo-2-(3-piperidin-1-yl-propyl)-[1,2,5]thiadiazepane-5-carbothioic acid (3,4-dichloro-phenyl)-amide]"
16,0.38 µM,"C[C@@H]1CN(CCCN2CCCCC2)C(=O)CCN1C(=O)Nc1ccc(Cl)c(Cl)c1 [Example 25, (R)-2-Methyl-5-oxo-4-(3-piperidin-1-yl-propyl)-[1,4]diazepane-1-carboxylic acid (3,4-dichloro-phenyl)-amide]"
17,0.58 µM,"C[C@@H]1CN(CCCN2CCCCC2)C(=O)CCN1C(=S)Nc1ccc(Cl)c(Cl)c1 [Example 26, (R)-2-Methyl-5-oxo-4-(3-piperidin-1-yl-propyl)-[1,4]diazepane-1-carbothioic acid (3,4-dichloro-phenyl)-amide]"
18,0.54 µM,"O=C1CCN(C(=O)Nc2ccc(Cl)c(Cl)c2)[C@H](Cc2ccccc2)CN1CCCN1CCCCC1 [Example 27, (R)-2-Benzyl-5-oxo-4-(3-piperidin-1-yl-propyl)-[1,4]diazepane-1-carboxylic acid (3,4-dichloro-phenyl)-amide]"
19,0.96 µM,"O=C1CCN(C(=O)Nc2ccc(Cl)c(Cl)c2)[C@H](c2ccccc2)CN1CCCN1CCCCC1 [Example 30, (R)-5-Oxo-2-phenyl-4-(3-piperidin-1-yl-propyl)-[1,4]diazepane-1-carboxylic acid (3,4-dichloro-phenyl)-amide]"
20,0.94 µM,"C[C@H]1C(=O)N(CCCN2CCCCC2)CCN1C(=O)Nc1cccc(Cl)c1 [Example 35, (S)-2-Methyl-3-oxo-4-(3-piperidin-1-yl-propyl)-piperazine-1-carboxylic acid (3-chloro-phenyl)-amide]"
21,0.05 µM,"C[C@H]1C(=O)N(CCCN2CCCCC2)CCN1C(=O)Nc1ccc(Cl)c(Cl)c1 [Example 37, (S)-2-Methyl-3-oxo-4-(3-piperidin-1-yl-propyl)-piperazine-1-carboxylic acid (3,4-dichloro-phenyl)-amide]"
22,0.21 µM,"C[C@H]1C(=O)N(CCCN2CCCCC2)CCN1C(=O)Nc1ccc(-c2ccccc2)cc1 [Example 38, (S)-2-Methyl-3-oxo-4-(3-piperidin-1-yl-propyl)-piperazine-1-carboxylic acid biphenyl-4-ylamide]"
23,0.36 µM,"C[C@H]1C(=O)N(CCCN2CCCCC2)CCN1C(=O)Nc1ccc2ccccc2c1 [Example 40, (S)-2-Methyl-3-oxo-4-(3-piperidin-1-yl-propyl)-piperazine-1-carboxylic acid naphthalen-2-ylamide]"
24,0.11 µM,"C[C@H]1C(=O)N(CCCN2CCCCC2)CCN1C(=O)Nc1ccc(F)c(Cl)c1 [Example 42, (S)-2-Methyl-3-oxo-4-(3-piperidin-1-yl-propyl)-piperazine-1-carboxylic acid (3-chloro-4-fluoro-phenyl)-amide]"
25,0.61 µM,"C[C@H]1C(=O)N(CCCN2CCCCC2)CCN1C(=O)Nc1cccc(-c2ccccc2)c1 [Example 43, (S)-2-Methyl-3-oxo-4-(3-piperidin-1-yl-propyl)-piperazine-1-carboxylic acid biphenyl-3-ylamide]"

row,Structure (SMILES),IC50
1,"COCC(CCN1CCC2(CC2)[C@H](O)C1)N1CCN(C(=O)Oc2ccc(Cl)c(Cl)c2)CCC1=O (stereo partly drawn) [Example 7, (R,S)-4-[3-((S)-4-Hydroxy-6-aza-spiro[2.5]oct-6-yl)-1-methoxymethyl-propyl]-5-oxo-[1,4]diazepane-1-carboxylic acid 3,4-dichloro-phenyl ester]",0.37 µM
2,"O=C(Oc1ccc(Cl)c(Cl)c1)N1CCC(=O)N(C(CO)CCN2CCC3(CC3)[C@H](O)C2)CC1 (stereo partly drawn) [Example 9, (R,S)-4-[3-((S)-4-Hydroxy-6-aza-spiro[2.5]oct-6-yl)-1-hydroxymethyl-propyl]-5-oxo-[1,4]diazepane-1-carboxylic acid 3,4-dichloro-phenyl ester]",0.42 µM
